The assay concerns the target hKIF18A (1-374) (Homo sapiens (Human), UniProt Q8NI77). In words: Inhibition of KIF18A microtubule-dependent ATPase activity (ADP-Glo). The format is biochemical. The note with it: 4 nM hKIF18A (1-374). The procedure, abridged:
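Reaction was started with pre-formed microtubules and ATP (0.2 mg/mL and 2.0 mM in the added mix) and run 60 min at 28 °C. ADP was read by ADP-Glo luminescence, and IC50 came from a four-parameter fit of % inhibition.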
Sequence of hKIF18A (1-374) (Q8NI77 1-374): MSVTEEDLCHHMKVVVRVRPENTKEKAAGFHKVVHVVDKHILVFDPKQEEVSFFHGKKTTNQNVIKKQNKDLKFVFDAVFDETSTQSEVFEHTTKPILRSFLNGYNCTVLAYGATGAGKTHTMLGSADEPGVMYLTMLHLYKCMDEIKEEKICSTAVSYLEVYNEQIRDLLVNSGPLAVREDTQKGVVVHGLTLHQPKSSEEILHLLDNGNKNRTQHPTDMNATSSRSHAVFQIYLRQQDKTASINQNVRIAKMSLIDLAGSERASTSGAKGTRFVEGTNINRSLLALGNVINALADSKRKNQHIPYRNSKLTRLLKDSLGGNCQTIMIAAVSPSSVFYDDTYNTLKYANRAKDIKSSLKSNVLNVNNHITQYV
`CS(=O)(=O)Nc1ccc(-n2cc(-c3cccc(N4CC(F)(F)C4)n3)nn2)c(N2CCC3(CC2)CC3)c1` [Compound 60, N-(4-(4-(6-(3,3-difluoroazetidin-1-yl)pyridin-2-yl)-1H-1,2,3-triazol-1-yl)-3-(6-azaspiro[2.5]octan-6-yl)phenyl)methanesulfonamide] had an IC50 of 6.5 nM. The figure for `CCOC(=O)CS(=O)(=O)Nc1ccc(-c2nnc(-c3cccc(N4CCC(F)(F)CC4)n3)[nH]2)c(N2CCC3(CC2)CC3)c1` [Compound 7, ethyl 2-(N-(4-(5-(6-(4,4-difluoropiperidin-1-yl)pyridin-2-yl)-4H-1,2,4-triazol-3-yl)-3-(6-azaspiro[2.5]octan-6-yl)phenyl)sulfamoyl)acetate] is 83 nM. As to `CS(=O)(=O)Nc1ccc(-c2nnc(-c3cccc4c3OCCC4)[nH]2)c(N2CCC3(CC2)CC3)c1` [Compound 3, N-(4-(5-(chroman-8-yl)-4H-1,2,4-triazol-3-yl)-3-(6-azaspiro[2.5]octan-6-yl)phenyl)methanesulfonamide], the IC50 stood at 280 nM. The value for `Cc1cc(-c2cn(-c3ccc(NS(=O)(=O)CCCO)cc3N3CCC4(CC3)CC4)nn2)nc(N2CCC(F)(F)CC2)n1` [Compound 151, N-(4-(4-(2-(4,4-difluoropiperidin-1-yl)-6-methylpyrimidin-4-yl)-1H-1,2,3-triazol-1-yl)-3-(6-azaspiro[2.5]octan-6-yl)phenyl)-3-hydroxypropane-1-sulfonamide] was 27 nM; that for `Cc1cc(-c2cn(-c3ccc(NS(=O)(=O)CCO)cc3N3CCCCC3)nn2)nc(N2CC3C(C2)C3(F)F)n1` (stereo not drawn) [Compound 74, N-(4-(4-(2-(6,6-difluoro-3-azabicyclo[3.1.0]hexan-3-yl)-6-methylpyrimidin-4-yl)-1H-1,2,3-triazol-1-yl)-3-(piperidin-1-yl)phenyl)-2-hydroxyethane-1-sulfonamide] was 18 nM; that for `O=S(=O)(CCO)Nc1ccc(-c2cn(-c3cnn(C4CCC(F)(F)CC4)c3)nn2)c(N2CCC3(CC2)CC3)c1` [Compound 166, N-(4-(1-(1-(4,4-difluorocyclohexyl)-1H-pyrazol-4-yl)-1H-1,2,3-triazol-4-yl)-3-(6-azaspiro[2.5]octan-6-yl)phenyl)-2-hydroxyethane-1-sulfonamide] was 2800 nM. Compound `Cc1cc(-c2cn(-c3ccc(NS(=O)(=O)C4CC4)cc3N3CCC4(CC3)CC4)nn2)nc(C(O)C2CCCC2)c1` (stereo not drawn) [Compound 139, N-(4-(4-(6-(cyclopentyl(hydroxy)methyl)-4-methylpyridin-2-yl)-1H-1,2,3-triazol-1-yl)-3-(6-azaspiro[2.5]octan-6-yl)phenyl)cyclopropanesulfonamide] yielded a half-maximal inhibitory concentration (IC50) of 40 nM. The figure for `Cc1cc(-c2cn(-c3ccc(NS(=O)(=O)CCO)cc3N3CCCCCC3)nn2)nc(N2CCC(F)(F)CC2)n1` [Compound 75, N-(3-(azepan-1-yl)-4-(4-(2-(4,4-difluoropiperidin-1-yl)-6-methylpyrimidin-4-yl)-1H-1,2,3-triazol-1-yl)phenyl)-2-hydroxyethane-1-sulfonamide] is 7.1 nM; for `CS(=O)(=O)Nc1ccc(-n2cc(-c3nccc(N4CCC(F)(F)CC4)n3)cn2)c(N2CCC3(CC2)CC3)c1` [Compound 66, N-(4-(4-(4-(4,4-difluoropiperidin-1-yl)pyrimidin-2-yl)-1H-pyrazol-1-yl)-3-(6-azaspiro[2.5]octan-6-yl)phenyl)methanesulfonamide] it is 14 nM. `CCS(=O)(=O)Nc1ccc(-n2cc(-c3ccc(F)c(C(O)C4CCCC4)n3)nn2)c(N2CCC3(CC2)CC3)c1` (stereo not drawn) [Compound 134, N-(4-(4-(6-(cyclopentyl(hydroxy)methyl)-5-fluoropyridin-2-yl)-1H-1,2,3-triazol-1-yl)-3-(6-azaspiro[2.5]octan-6-yl)phenyl)ethanesulfonamide]: 14 nM corresponded to half-maximal inhibition (IC50). The value for `Cc1cc(-c2cn(-c3ccc(NS(=O)(=O)CCO)cc3N3CCC4(CC3)CC4)nn2)nc(N2CC3CC3C2)n1` (stereo not drawn) [Compound 99, N-(4-(4-(2-(3-azabicyclo[3.1.0]hexan-3-yl)-6-methylpyrimidin-4-yl)-1H-1,2,3-triazol-1-yl)-3-(6-azaspiro[2.5]octan-6-yl)phenyl)-2-hydroxyethane-1-sulfonamide] was 8.1 nM. For `O=S(=O)(CCO)Nc1ccc(-n2cc(-c3nc(N4CCC(F)(F)CC4)sc3F)nn2)c(N2CCC3(CC2)CC3)c1` [Compound 93, N-(4-(4-(2-(4,4-difluoropiperidin-1-yl)-5-fluorothiazol-4-yl)-1H-1,2,3-triazol-1-yl)-3-(6-azaspiro[2.5]octan-6-yl)phenyl)-2-hydroxyethane-1-sulfonamide], inhibition was half-maximal at 10 nM (IC50).

Regarding `O=S(=O)(CCO)Nc1ccc(-n2cc(-c3ccc(C(O)C4CCCC4)o3)nn2)c(N2CCC3(CC2)CC3)c1` (single isomer, unassigned) [Compound 51a], the IC50 came to 2.4 nM. The value for `CCS(=O)(=O)Nc1ccc(-n2cc(-c3c[n+]([O-])cc(N4CCC(F)(F)CC4)n3)nn2)c(N2CCC3(CC2)CC3)c1` [Compound 146, 3-(4,4-difluoropiperidin-1-yl)-5-(1-(4-(ethylsulfonamido)-2-(6-azaspiro[2.5]octan-6-yl)phenyl)-1H-1,2,3-triazol-4-yl)pyrazine 1-oxide] was 4.4 nM. The compound `CS(=O)(=O)Nc1ccc(-c2nc(-c3cccc(N4CCOCC4)n3)no2)c(N2CCC3(CC2)CC3)c1` [Compound 163, N-(4-(3-(6-morpholinopyridin-2-yl)-1,2,4-oxadiazol-5-yl)-3-(6-azaspiro[2.5]octan-6-yl)phenyl)methanesulfonamide] had an IC50 of 3600 nM. The compound `Cn1cc(-c2cn(-c3ccc(NS(=O)(=O)CCO)cc3N3CCC4(CC3)CC4)nn2)nc1N1CCC(F)(F)CC1` [Compound 119, N-(4-(4-(2-(4,4-difluoropiperidin-1-yl)-1-methyl-1H-imidazol-4-yl)-1H-1,2,3-triazol-1-yl)-3-(6-azaspiro[2.5]octan-6-yl)phenyl)-2-hydroxyethane-1-sulfonamide] showed a concentration for half-maximal inhibition (IC50) of 42 nM. `O=C(O)c1cc(-c2cn(-c3ccc(NS(=O)(=O)CCO)cc3N3CCC4(CC3)CC4)nn2)nc(N2CCC(F)(F)CC2)n1` [Compound 158, 2-(4,4-difluoropiperidin-1-yl)-6-(1-(4-((2-hydroxyethyl)sulfonamido)-2-(6-azaspiro[2.5]octan-6-yl)phenyl)-1H-1,2,3-triazol-4-yl)pyrimidine-4-carboxylic acid]: inhibition was half-maximal at 3.8 nM (IC50). This IC50 is about 11-fold lower than that of the compound before.

Compound `O=S(=O)(CCO)Nc1ccc(-n2cc(-c3ccn(C4CCC(F)(F)CC4)n3)nn2)c(N2CCC3(CC2)CC3)c1` [Compound 84, N-(4-(4-(1-(4,4-difluorocyclohexyl)-1H-pyrazol-3-yl)-1H-1,2,3-triazol-1-yl)-3-(6-azaspiro[2.5]octan-6-yl)phenyl)-2-hydroxyethane-1-sulfonamide] returned an IC50 of 8.2 nM. The value for `O=S(=O)(CCO)Nc1ccc(-n2cc(-c3csc(N4CCC(F)(F)CC4)n3)nn2)c(N2CCCCC2)c1` [Compound 86, N-(4-(4-(2-(4,4-difluoropiperidin-1-yl)thiazol-4-yl)-1H-1,2,3-triazol-1-yl)-3-(piperidin-1-yl)phenyl)-2-hydroxyethane-1-sulfonamide] was 27 nM; that for `O=C(c1ccc(-c2cn(-c3ccc(NS(=O)(=O)CCO)cc3N3CCC4(CC3)CC4)nn2)o1)C1CCCC1` [Compound 92, N-(4-(4-(5-(cyclopentanecarbonyl)furan-2-yl)-1H-1,2,3-triazol-1-yl)-3-(6-azaspiro[2.5]octan-6-yl)phenyl)-2-hydroxyethane-1-sulfonamide] was 9.6 nM; that for `Cc1cc(-c2cn(-c3ccc(NS(=O)(=O)CCO)cc3N3CCC(F)(F)CC3)nn2)nc(N2CCC(F)(F)CC2)c1` [Compound 80, N-(3-(4,4-difluoropiperidin-1-yl)-4-(4-(6-(4,4-difluoropiperidin-1-yl)-4-methylpyridin-2-yl)-1H-1,2,3-triazol-1-yl)phenyl)-2-hydroxyethane-1-sulfonamide] was 13 nM. The value for `Cc1cc(-c2cn(-c3ccc(NS(=O)(=O)CCO)cc3N3CCC4(CC3)CC4)nn2)nc(N2CCCC2)n1` [Compound 98, 2-hydroxy-N-(4-(4-(6-methyl-2-(pyrrolidin-1-yl)pyrimidin-4-yl)-1H-1,2,3-triazol-1-yl)-3-(6-azaspiro[2.5]octan-6-yl)phenyl)ethane-1-sulfonamide] was 12 nM; that for `O=S(=O)(CCO)Nc1ccc(-c2cn(-c3ccc(F)c(S(=O)(=O)N4CC(F)(F)C4)c3)nn2)c(N2CCC3(CC2)CC3)c1` [Compound 129, N-(4-(1-(3-((3,3-difluoroazetidin-1-yl)sulfonyl)-4-fluorophenyl)-1H-1,2,3-triazol-4-yl)-3-(6-azaspiro[2.5]octan-6-yl)phenyl)-2-hydroxyethane-1-sulfonamide] was 14 nM. On to `O=S(=O)(CCO)Nc1ccc(-n2cc(-c3csc(N4CCCC4)n3)nn2)c(N2CCC3(CC2)CC3)c1` [Compound 81, 2-hydroxy-N-(4-(4-(2-(pyrrolidin-1-yl)thiazol-4-yl)-1H-1,2,3-triazol-1-yl)-3-(6-azaspiro[2.5]octan-6-yl)phenyl)ethane-1-sulfonamide], for which the IC50 was 140 nM. `CCS(=O)(=O)Nc1ccc(-n2cc(-c3ccc(F)c(N4CCC(F)(F)CC4)n3)nn2)c(N2CCC3(CC2)CC3)c1` [Compound 148, N-(4-(4-(6-(4,4-difluoropiperidin-1-yl)-5-fluoropyridin-2-yl)-1H-1,2,3-triazol-1-yl)-3-(6-azaspiro[2.5]octan-6-yl)phenyl)ethanesulfonamide] registered an IC50 of 31 nM. The figure for `O=S(=O)(CCO)Nc1ccc(-n2cc(-c3ccc(C4CCCC4)o3)nn2)c(N2CCC3(CC2)CC3)c1` [Compound 126, N-(4-(4-(5-cyclopentylfuran-2-yl)-1H-1,2,3-triazol-1-yl)-3-(6-azaspiro[2.5]octan-6-yl)phenyl)-2-hydroxyethane-1-sulfonamide] is 71 nM; for `Cc1cc(-c2nnc(-c3ccc(NS(C)(=O)=O)cc3N3CCC4(CC3)CC4)[nH]2)nc(N2CCOCC2)n1` [Compound 6, N-(4-(5-(6-methyl-2-morpholinopyrimidin-4-yl)-4H-1,2,4-triazol-3-yl)-3-(6-azaspiro[2.5]octan-6-yl)phenyl)methanesulfonamide] it is 25 nM.

For the origin of these results see patent US20230382889A1 (Volastra Therapeutics, Inc., priority 2022, published 2023).
